Assay results published in patent EP0565674B1, “METHOD FOR MEMORY ENHANCEMENT AND QUALITY OF LIFE IMPROVEMENT” (CITY OF HOPE, priority 1991, dated 1993).
Where a name gives a salt, the structure may show the parent alone.

Legend:
CD-1 male mice [1] = assay: T-maze footshock active avoidance training (FAAT), retention after 1 week, well-trained mice, prevention of DMSO-induced amnesia; settings: for trials to criterion compared with DMSO alone / saline alone: 3.5X10^-10 mol icv 2-3 min after FAAT, in DMSO, retention tested one week later, groups of 15 mice
Description: (§1) Test Animals. After 1 week in the laboratory, CD-1 male mice obtained from Charles River Breeding Laboratories were caged individually 24-48 hr prior to training and remained singly housed until retention was tested 1 week later. Animal rooms were on a 12-hr light/dark cycle with lights going on at the hour of 0600.
(§2) With the exception of pregnenolone sulfate, all of the substances were dissolved in appropriate amounts of pure DMSO and 2 µl of DMSO alone or containing test substance was injected icv into each mouse after training. Pregnenolone sulfate was dissolved in DMSO and diluted with physiological saline to a final concentration of 1% DMSO or less in saline, and the results of, injections of 2 µl of solutions containing pregnenolone sulfate were compared with those obtained with 2 µl of such saline solutions alone.
(§3) Apparatus, Training and Testing Procedures. The T-maze used for footshock active avoidance training (FAAT) consisted of a black plastic alley (46 cm long) with a start box at one end and two goal boxes (17.5 cm long) at the other. The start box was separated from the alley by a plastic guillotine door that prevented movement down the alley until training began. The alley was 12.5 cm deep and 9.8 cm wide. An electrifiable stainless steel rod floor ran throughout the maze.
(§4) Mice were not permitted to explore the maze before training. A block of training trials began when a mouse was placed in the start box. The guillotine door was raised and a muffled doorbell-type buzzer sounded simultaneously; footshock was 5 sec later through a scrambled grid floor shocker (Colbourn Instruments, model E13-08). The goal box first entered during the first set of trials was designated as "incorrect", and footshock was continued until the mouse entered the other goal box, which in all subsequent trials was designated "correct" for the particular mouse. At the end of each group of trials, the mouse was removed to its home cage.
As training proceeded, a mouse made one of two types of responses. A response latency longer than 5 sec was classed as an escape from the footshock. A response latency less than or equal to 5 sec was considered an avoidance, since the mouse avoided receiving a footshock. Two exclusion criteria were applied to reduce learning variability among mice, as follows. On the first training trials, mice with escape latencies greater than 20 sec were discarded. Mice not having at least one errorless escape latency between 1.5 and 3.5 sec on training trials 3 or 4 were excluded. The total exclusions were fewer than 15%. Mice received five such training trials. One week after training and post-trial administration of vehicle alone or vehicle containing test substance, T-maze training was resumed until each mouse made five avoidance responses in six consecutive training trials (trials to criterion). The recall score was taken to be the percentage of tested mice remembering original training.
In these instances, training was performed under conditions that tend to maximize learning (sound intensity, 65 decibels; footshock current, 0.35 mA; intertrial interval, 45 s).
Surgical Procedure in Preparation for Intracerebroventricular (icv) Administration of Substances. Icv injection was the mode of administration of test substances because this eliminates problems of differential penetration of the blood-brain barrier. The following procedure was performed 24-48 hr prior to training.

CD-1 male mice [2] = assay: T-maze footshock active avoidance training (FAAT), retention after 1 week, weakly trained mice, memory enhancement
Description: as §1, §2, §3, §4
As training proceeded, a mouse made one of two types of responses. A response latency longer than 5 sec was classed as an escape from the footshock. […]

SMILES | trials to criterion compared with DMSO alone / saline alone (CD-1 male mice [1]) | also measured
C[C@]12CC[C@@H]3c4ccc(O)cc4CC[C@H]3[C@@H]1CCC2=O [estrone, 1,3,5(10)-estratrien-3-ol-17-one] | significantly different from those obtained with DMSO alone and significantly greater than those receiving saline alone | –
C[C@]12CCC(=O)C=C1CC[C@@H]1[C@@H]2CC[C@]2(C)C(=O)CC[C@@H]12 [androstenedione, 4,androsten-3,17-dione] | significantly fewer trials to criterion than mice receiving DMSO alone | –
CC(=O)C1CCC2C3CC=C4CC(OS(=O)(=O)O)CCC4(C)C3CCC12C (stereo not drawn) [pregnenolone sulfate, 5-pregnen-3β-ol-20-one sulfate, sodium salt] | – | potency relative to DHEA (CD-1 male mice [2]; memory enhancement in mice): ~1000 times; potency relative to pregnenolone (CD-1 male mice [2]; memory enhancement in mice): approximately 10 times
C[C@]12CC[C@@H]3c4ccc(O)cc4CC[C@H]3[C@@H]1CC[C@@H]2O [estradiol, 1,3,5(10)-estratrien-3,17β-diol] | significantly different from those obtained with DMSO alone and significantly greater than those receiving saline alone | –
C[C@]12CC[C@H](O)CC1=CC[C@@H]1[C@@H]2CC[C@]2(C)C(=O)CC[C@@H]12 [DHEA, 5-androsten-3β-ol-17-one] | significantly fewer trials to criterion than mice receiving DMSO alone | –
C[C@]12CCC(=O)C=C1CC[C@@H]1[C@@H]2[C@@H](O)C[C@]2(C=O)[C@@H](C(=O)CO)CC[C@@H]12 [aldosterone, 4-pregnen-11β,21-diol-3,18,20-trione] | significantly fewer trials to criterion than mice receiving DMSO alone | –
CC(=O)[C@H]1CC[C@H]2[C@@H]3CCC4=CC(=O)CC[C@]4(C)[C@H]3CC[C@]12C [progesterone, 4-pregnen-3,20-dione] | significantly different from those obtained with DMSO alone and significantly greater than those receiving saline alone | –
C[C@]12CC[C@H](OS(=O)(=O)O)CC1=CC[C@@H]1[C@@H]2CC[C@]2(C)C(=O)CC[C@@H]12 [DHEAS, dehydroepiandrosterone sulfate] | significantly fewer trials to criterion than mice receiving DMSO alone | –
C[C@]12CC[C@H]3[C@@H](CCC4=CC(=O)CC[C@@]43C)[C@@H]1CC[C@@H]2O [testosterone, 4-androsten-17β-ol-3-one] | significantly fewer trials to criterion than mice receiving DMSO alone | –
C[C@]12CCC(=O)C[C@@H]1CC[C@@H]1[C@@H]2CC[C@]2(C)[C@@H](O)CC[C@@H]12 [dihydrotestosterone, 5α-androstan-17β-ol-3-one] | significantly fewer trials to criterion than mice receiving DMSO alone | –
CC(=O)[C@H]1CC[C@H]2[C@@H]3CC=C4C[C@@H](O)CC[C@]4(C)[C@H]3CC[C@]12C [pregnenolone, 5-pregnen-3β-ol-20-one] | significantly fewer trials to criterion than mice receiving DMSO alone | trials to criterion (CD-1 male mice [2]; weakly trained mice, 3.5X10^-15 mol per mouse icv, p < 0.05 vs vehicle controls (9.30±0.47), mean ± SEM): 7.70±0.55; potency on a molar basis relative to the other two substances tested (DHEA, testosterone) (CD-1 male mice [1]; from dose-response curves): at least 100 times
